Consider 1 compound from US20090203605A1, “Methods For Treating A Condition Characterized By Dysfunction In Protein Homeostasis” (THE SCRIPPS RESEARCH INSTITUTE, priority 2008, published 2009).

One assay has as its system P356R α-mannosidase. Nature of the assay: Lysed cell α-mannosidase activity in α-mannosidosis fibroblasts. In kind it is cell-based, human. The text has this:
Lysosomal α-mannosidase is a broad specificity exoglycosidase involved in the ordered degradation of glycoproteins. Michalski et al, Biochim Biophys Acta-Mol Basis Dis 1455: 69-84, 1999. The P356R mutation in the α-mannosidase enzyme appears to compromise folding and trafficking, leading to very low lysosomal α-mannosidase activity and severe α-mannosidosis. […] The activity of cells harboring P356R α-mannosidase is approximately 18% of that of WT α-mannosidase, under the assay conditions employed. […] . FIG. 21A). […] .

A further assay has as its system R245H/E447K SGSH. In kind it is cell-based, human. The conditions noted are these: verapamil, 5-day treatment.

In the case of `COc1ccc(CCN(C)CCCC(C#N)(c2ccc(OC)c(OC)c2)C(C)C)cc1OC` (stereo not drawn) [verapamil], the “effect on α-mannosidase activity” value with P356R α-mannosidase (brief exposure (1 day)) is on record as “did not increase α-mannosidase activity significantly”. The “P356R α-mannosidase activity as % of WT α-mannosidase” value in the assay on P356R α-mannosidase (verapamil 50 μM, 4 days) is on record as “≈ 56%”. Moreover, in the assay with R245H/E447K SGSH, the “effect on R245H/E447K sulfamidase activity” value was “did not change the sulfamidase activity significantly”.
